From patent US6479435B1, “Diaryl ethers and processes for their preparation and herbicidal and desiccant compositions containing them” (ISK Americas Incorporated, priority 1997, dated 2002)

How the values were obtained:
Format in all cases: in vivo
[1] = system: field corn (Zea mays L., var. Dekalb 535, CORN); assay: Pre-emerge greenhouse test, crop damage rating; conditions: 14 days after application, rating scale 0-100
Outline: (§1)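 Seeds sown in sandy loam mix one day before track-sprayer application of compounds in acetone at 125–1000 g ai/ha (187 l/ha), then surface-watered to incorporate and bottom-watered. Visual rating 14 days after application on a 0–100 scale (0 = no damage, 100 = all plants dead).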

[2] = system: upland rice (Oryza sp., var.Tebonnet, RICE); assay: Pre-emerge greenhouse test, crop damage rating; conditions: 14 days after application, rating scale 0-100
Outline: as §1

[3] = system: field corn (Zea mays L., var. Dekalb 535, CORN); assay: Post-emerge greenhouse test, crop damage rating; conditions: 14 days after application
Outline: (§2)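 Compounds in acetone with 0.25% v/v non-ionic surfactant were track-sprayed at 187 l/ha over plants at the 2-3 leaf stage, at 63 to 1000 g ai/ha. Pots were bottom-watered. Injury was scored visually 14 days later on a 0-100 scale, where 0 is no damage and 100 is complete plant death.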

[4] = system: upland rice (Oryza sp., var.Tebonnet, RICE); assay: Post-emerge greenhouse test, crop damage rating; conditions: 14 days after application
Outline: as §2

[5] = system: common ragweed (Ambrosia artemisiifolia L., AMBEL); assay: Post-emerge greenhouse herbicide test, phytotoxicity rating; conditions: 14 days after application
Outline: as §2

[6] = system: soybean (Glycine max L., var. Pella 86, SOY); assay: Post-emerge greenhouse test, crop damage rating; conditions: 14 days after application
Outline: as §2

[7] = system: sicklepod (Cassia obtusifolia, CASOB); assay: Pre-emerge greenhouse herbicide test, phytotoxicity rating; conditions: 14 days after application, rating scale 0-100
Outline: as §1

[8] = system: barnyardgrass (Echinochloa crusgalli, ECHCG); assay: as above; conditions: 14 days after application, rating scale 0-100
Outline: as §1

[9] = system: green foxtail (Setaria viridis, SETVI); assay: as above; conditions: 14 days after application, rating scale 0-100
Outline: as §1

[10] = system: large crabgrass (Digitaria sanguinalis, DIGSA); assay: as above; conditions: 14 days after application, rating scale 0-100
Outline: as §1

[11] = system: velvetleaf (Abutilon theophrasti, ABUTH); assay: as above; conditions: 14 days after application, rating scale 0-100
Outline: as §1

[12] = system: ivyleaf morningglory (Ipomoea hederacea, IPOHE); assay: as above; conditions: 14 days after application, rating scale 0-100
Outline: as §1

[13] = system: Johnsongrass (Sorghum halepense, SORHA); assay: as above; conditions: 14 days after application, rating scale 0-100
Outline: as §1

[14] = system: redroot pigweed (Amaranthus retroflexus, AMARE); assay: as above; conditions: 14 days after application, rating scale 0-100
Outline: as §1

[15] = system: common ragweed (Ambrosia artemisiifolia L., AMBEL); assay: as above; conditions: 14 days after application, rating scale 0-100
Outline: as §1

[16] = system: lambsquarters (Chenopodium album, CHEAL); assay: as above; conditions: 14 days after application, rating scale 0-100
Outline: as §1

[17] = system: sicklepod (Cassia obtusifolia, CASOB); assay: Post-emerge greenhouse herbicide test, phytotoxicity rating; conditions: 14 days after application
Outline: as §2

[18] = system: barnyardgrass (Echinochloa crusgalli, ECHCG); assay: as above; conditions: 14 days after application
Outline: as §2

[19] = system: green foxtail (Setaria viridis, SETVI); assay: as above; conditions: 14 days after application
Outline: as §2

[20] = system: large crabgrass (Digitaria sanguinalis, DIGSA); assay: as above; conditions: 14 days after application
Outline: as §2

[21] = system: velvetleaf (Abutilon theophrasti, ABUTH); assay: as above; conditions: 14 days after application
Outline: as §2

[22] = system: ivyleaf morningglory (Ipomoea hederacea, IPOHE); assay: as above; conditions: 14 days after application
Outline: as §2

[23] = system: Johnsongrass (Sorghum halepense, SORHA); assay: as above; conditions: 14 days after application
Outline: as §2

[24] = system: redroot pigweed (Amaranthus retroflexus, AMARE); assay: as above; conditions: 14 days after application
Outline: as §2

[25] = system: lambsquarters (Chenopodium album, CHEAL); assay: as above; conditions: 14 days after application
Outline: as §2

[26] = system: soybean (Glycine max L., var. Pella 86, SOY); assay: Pre-emerge greenhouse test, crop damage rating; conditions: 14 days after application, rating scale 0-100
Outline: as §1

For `Nc1ccc(Oc2cc(-n3c(=O)n4n(c3=S)CCCC4)c(F)cc2Cl)cc1` [Compound 8-9], the “crop damage rating CORN” value ([1]; 125 g ai/ha) was 0, the “crop damage rating CORN” value ([1]; 500 g ai/ha) was 0 and the “crop damage rating RICE” value ([2]; 125 g ai/ha) was 0. The “crop damage rating RICE” value ([2]; 500 g ai/ha) was 0, the “CORN crop damage rating (0-100)” value ([3]; 63 g al/ha) was 0 and the “CORN crop damage rating (0-100)” value ([3]; 500 g al/ha) was 10. For the same molecule, the “RICE crop damage rating (0-100)” value ([4]; 63 g al/ha) was 0, the “RICE crop damage rating (0-100)” value ([4]; 500 g al/ha) was 0 and the “AMBEL phytotoxicity rating (0-100)” value ([5]; 63 g al/ha) was 30. For the same molecule, the “AMBEL phytotoxicity rating (0-100)” value ([5]; 500 g al/ha) was 80, the “SOY crop damage rating (0-100)” value ([6]; 63 g al/ha) was 20 and the “SOY crop damage rating (0-100)” value ([6]; 500 g al/ha) was 70. The “phytotoxicity rating CASOB” value ([7]; 125 g ai/ha) was 0, the “phytotoxicity rating CASOB” value ([7]; 500 g ai/ha) was 40 and the “phytotoxicity rating ECHCG” value ([8]; 125 g ai/ha) was 0. For the same molecule, the “phytotoxicity rating ECHCG” value ([8]; 500 g ai/ha) was 0, the “phytotoxicity rating SETVI” value ([9]; 125 g ai/ha) was 0 and the “phytotoxicity rating SETVI” value ([9]; 500 g ai/ha) was 30. For the same molecule, the “phytotoxicity rating DIGSA” value ([10]; 125 g ai/ha) was 0, the “phytotoxicity rating DIGSA” value ([10]; 500 g ai/ha) was 0 and the “phytotoxicity rating ABUTH” value ([11]; 125 g ai/ha) was 60. For the same molecule, the “phytotoxicity rating ABUTH” value ([11]; 500 g ai/ha) was 100, the “phytotoxicity rating IPOHE” value ([12]; 125 g ai/ha) was 0 and the “phytotoxicity rating IPOHE” value ([12]; 500 g ai/ha) was 10. The “phytotoxicity rating SORHA” value ([13]; 125 g ai/ha) was 0, the “phytotoxicity rating SORHA” value ([13]; 500 g ai/ha) was 0 and the “phytotoxicity rating AMARE” value ([14]; 125 g ai/ha) was 100. For the same molecule, the “phytotoxicity rating AMARE” value ([14]; 500 g ai/ha) was 95, the “phytotoxicity rating AMBEL” value ([15]; 125 g ai/ha) was 30 and the “phytotoxicity rating AMBEL” value ([15]; 500 g ai/ha) was 30. For the same molecule, the “phytotoxicity rating CHEAL” value ([16]; 125 g ai/ha) was 70, the “phytotoxicity rating CHEAL” value ([16]; 500 g ai/ha) was 100 and the “CASOB phytotoxicity rating (0-100)” value ([17]; 63 g al/ha) was 0. For the same molecule, the “CASOB phytotoxicity rating (0-100)” value ([17]; 500 g al/ha) was 100, the “ECHCG phytotoxicity rating (0-100)” value ([18]; 63 g al/ha) was 0 and the “ECHCG phytotoxicity rating (0-100)” value ([18]; 500 g al/ha) was 0. For the same molecule, the “SETVI phytotoxicity rating (0-100)” value ([19]; 63 g al/ha) was 0, the “SETVI phytotoxicity rating (0-100)” value ([19]; 500 g al/ha) was 30 and the “DIGSA phytotoxicity rating (0-100)” value ([20]; 63 g al/ha) was 0. For the same molecule, the “DIGSA phytotoxicity rating (0-100)” value ([20]; 500 g al/ha) was 10, the “ABUTH phytotoxicity rating (0-100)” value ([21]; 63 g al/ha) was 50 and the “ABUTH phytotoxicity rating (0-100)” value ([21]; 500 g al/ha) was 100. The “IPOHE phytotoxicity rating (0-100)” value ([22]; 63 g al/ha) was 40, the “IPOHE phytotoxicity rating (0-100)” value ([22]; 500 g al/ha) was 100 and the “SORHA phytotoxicity rating (0-100)” value ([23]; 63 g al/ha) was 0. The “SORHA phytotoxicity rating (0-100)” value ([23]; 500 g al/ha) was 30, the “AMARE phytotoxicity rating (0-100)” value ([24]; 63 g al/ha) was 90 and the “AMARE phytotoxicity rating (0-100)” value ([24]; 500 g al/ha) was 100. For the same molecule, the “CHEAL phytotoxicity rating (0-100)” value ([25]; 63 g al/ha) was 60, the “CHEAL phytotoxicity rating (0-100)” value ([25]; 500 g al/ha) was 95 and the “crop damage rating SOY” value ([26]; 125 g ai/ha) was 0. The “crop damage rating SOY” value ([26]; 500 g ai/ha) was 0.
